# Reference: patent publication US20070027175A1, “Antineoplastic activities of ellipticine and its derivatives” (priority 2005, published 2007)
# Where two headings read alike, the source gives them in different places.
# Columns and labels:
# Ark myeloma cell line = assay: CellTiter-Glo luminescent cell viability assay, Ark; format: cell-based, human; parameters: unit of the concentration uncertain
# Experimental: (§1) The dosage of each derivative was set at 2, 0.2 and 0.02 mM. A cell culture medium control and 0.5% DMSO control was maintained in each experiment. The cell viability was tested each day over a period of five days using the CellTiter-Glo luminescent cell viability assay kit from Promega Co.
# (§2) Cell Titer-Glo luminescent cell viability assay kit from Promega Co (Madison, Wis.) was used to determine cell growth inhibition by the various compounds tested. The kit determines cell viability by quantifying the amount of ATP present in the cell culture medium. Presence of ATP signals the presence of metabolically active cells (3). The intensity of luminescence was measured by a computerized luminometer (Promega, Co. Madison, Wis.). Each well was read five times within 30 minutes of adding Cell Titer-Glo reagent mixture.
# (§3) Cells were contacted with the antineoplastic agents in ninety six well culture plates. The concentration of each neoplastic agent was maintained a constant. A cell culture medium control and 0.5% DMSO control were maintained in each set of experiments. The cell viability was tested every day using the CellTiter-Glo luminescent cell viability kit from Promega Co. (Madison, Wis.) for a period of five days.
# [1] = system: RPMI8226 myeloma cell line; assay: CellTiter-Glo luminescent cell viability assay, RPMI8226; format: cell-based, human; parameters: unit of the concentration uncertain
# Experimental: as §1
# as §2, with “mixture. […]” for “mixture.”
# CAG myeloma cell line = assay: CellTiter-Glo luminescent cell viability assay, CAG; format: cell-based, human; parameters: unit of the concentration uncertain
# Experimental: as §1, §2, §3
# [2] = system: myeloma cell lines ARK, KMS11, RPMI 8226, and U266; assay: In vitro screening of DTP compounds on myeloma cell lines (CellTiter-Glo); format: cell-based, human
# Experimental: Eight myeloma cell lines were contacted with the antineoplastic agents to be tested in ninety six well culture plates. […]
# Myeloma cell lines were maintained at >90% viability at 37° C. and 5% CO2. Cells were diluted to 20,000 cells/ml in fresh medium. A 50-μl aliquot of cell suspension was seeded in 96-well tissue culture plates to final cell counts of 1,000 cells/well. All compounds obtained from NCI's Developmental Therapeutics Program (DTP compounds) were dissolved in 100% dimethylsulfoxide (DMSO) (Sigma-Aldrich, St. Louis, Mo.) at 1 mg/ml and further diluted in fresh medium to 1 μg/ml. Each compound (50-μl aliquots) was distributed to a well containing 1,000 myeloma cells. Each plate included controls with addition of only medium or only DMSO (0.5% final concentration). All experiments were conducted in triplicate.
# Using CellTiter-Glo Luminescent Assay kit (Promega, Madison, Wis.) according to manufacturer's instructions, cell viability was assayed every 24 hours after addition of DTP compound for 5 days. Briefly, the CellTiter-Glo substrate was dissolved in buffer, and 100 μl was added to each well. […] The statistic sampling distribution for each compound per cell line was based on sample of n=15 measurements.
# Other ellipticine derivatives from the DTP (at 0.5 mM final concentration) were used to screen the same four myeloma cell lines.
# NCI-60 cancer panel = conditions: average across the cell lines of the concentration at which growth is inhibited 50%; unit in the High Conc. footnote; cited from earlier work
# U266 myeloma cell line = system: U266 myeloma cell line; parameters: cell viability (CellTiter-Glo luminescent assay): dose or concentration left out as unconfirmed; conditions: U266
# Experimental: as §1
# U266 cell line was one of 12 myeloma cell lines used in screening of anti-myeloma agents. In FIG. 10A, cells were treated with 14 ellipticine derivatives (0.5 mM) obtained from the DTP; control cells were untreated. Ellipticine derivatives are coded with NSC identifiers. For 5 days, cell viability was measured every 24 hours using CellTiter-Glo Luminescent Assay. […] In FIG. 10B, U266 cells, along with six other myeloma cell lines, were co-cultured in direct contact with human fetal bone mesenchymal cells and treated with EPED3 (0.5 mM and 2 mM) or Velcade (0.5 mM); control cells were untreated. Cell proliferation was assessed by MTT assay every 24 hours for 5 days. […] Error bars indicate standard deviation.
# as §2, §3
# [3] = system: 12 myeloma cell lines (Ark, BW288, CAG, Delta47, DF15, JJN3, kms11, L363, opm2, RPMI8226, U266 and XG1); assay: Comparative study with existing anti-myeloma drugs (CellTiter-Glo); format: cell-based, human
# Text: The results obtained from these controls are pooled together in the figure (●). The dose of each compound was set […].
# Comparative study of NSC 338258 with existing anti-myeloma drugs Myeloma cell lines were exposed to NSC 338258 and existing anti myeloma drugs, Adriamycin® (Doxorubicin Hydrochloride) and Etoposide (VP-16-213) in ninety six well culture plates. The concentration of each compound was set […]. […] The cell growth was near zero in the following days (day 4 onwards; FIG. 6). It was also observed that 12 myeloma cell lines (Ark, BW288, CAG, Delta47, DF15, JJN3, kms11, L363, opm2, RPMI8226, U266 and XG1) responded to the same dosage (0.2 μM) of NSC 338258, VP-16-213 and Adriamycin in 5 days.
smiles,measurement,setting,value
"COc1ccc2[nH]c3c(C)c4ccncc4c(C)c3c2c1 [NSC 69187, ellipticine-9-methoxy-]",cell viability (CellTiter-Glo luminescent assay),"Ark myeloma cell line; 0.02 (unit uncertain), Day 1","119,617"
same,cell viability (CellTiter-Glo luminescent assay),"Ark myeloma cell line; 0.02 (unit uncertain), Day 2","244,779"
same,cell viability (CellTiter-Glo luminescent assay),"Ark myeloma cell line; 0.02 (unit uncertain), Day 3","371,712"
same,cell viability (CellTiter-Glo luminescent assay),"Ark myeloma cell line; 0.02 (unit uncertain), Day 4","824,251"
same,cell viability (CellTiter-Glo luminescent assay),"Ark myeloma cell line; 0.02 (unit uncertain), Day 5","1,347,042"
same,cell viability (CellTiter-Glo luminescent assay),"Ark myeloma cell line; 0.2 (unit uncertain), Day 1","92,678"
same,cell viability (CellTiter-Glo luminescent assay),"Ark myeloma cell line; 0.2 (unit uncertain), Day 2","208,050"
same,cell viability (CellTiter-Glo luminescent assay),"Ark myeloma cell line; 0.2 (unit uncertain), Day 3","256,789"
same,cell viability (CellTiter-Glo luminescent assay),"Ark myeloma cell line; 0.2 (unit uncertain), Day 4","506,725"
same,cell viability (CellTiter-Glo luminescent assay),"Ark myeloma cell line; 0.2 (unit uncertain), Day 5","826,957"
same,cell viability (CellTiter-Glo luminescent assay),"Ark myeloma cell line; 2 (unit uncertain), Day 1","14,932"
same,cell viability (CellTiter-Glo luminescent assay),"Ark myeloma cell line; 2 (unit uncertain), Day 2",815
same,cell viability (CellTiter-Glo luminescent assay),"Ark myeloma cell line; 2 (unit uncertain), Day 3",289
same,cell viability (CellTiter-Glo luminescent assay),"Ark myeloma cell line; 2 (unit uncertain), Day 4",463
same,cell viability (CellTiter-Glo luminescent assay),"Ark myeloma cell line; 2 (unit uncertain), Day 5",375
same,cell viability (CellTiter-Glo luminescent assay),"[1]; 0.02 (unit uncertain), Day 1","103,366"
same,cell viability (CellTiter-Glo luminescent assay),"[1]; 0.02 (unit uncertain), Day 2","238,331"
same,cell viability (CellTiter-Glo luminescent assay),"[1]; 0.02 (unit uncertain), Day 3","411,171"
same,cell viability (CellTiter-Glo luminescent assay),"[1]; 0.02 (unit uncertain), Day 4","869,367"
same,cell viability (CellTiter-Glo luminescent assay),"[1]; 0.02 (unit uncertain), Day 5","1,011,078"
same,cell viability (CellTiter-Glo luminescent assay),"[1]; 0.2 (unit uncertain), Day 1","82,834"
same,cell viability (CellTiter-Glo luminescent assay),"[1]; 0.2 (unit uncertain), Day 2","148,198"
same,cell viability (CellTiter-Glo luminescent assay),"[1]; 0.2 (unit uncertain), Day 3","216,515"
same,cell viability (CellTiter-Glo luminescent assay),"[1]; 0.2 (unit uncertain), Day 4","311,641"
same,cell viability (CellTiter-Glo luminescent assay),"[1]; 0.2 (unit uncertain), Day 5","379,475"
same,cell viability (CellTiter-Glo luminescent assay),"[1]; 2 (unit uncertain), Day 1","21,912"
same,cell viability (CellTiter-Glo luminescent assay),"[1]; 2 (unit uncertain), Day 2","2,688"
same,cell viability (CellTiter-Glo luminescent assay),"[1]; 2 (unit uncertain), Day 3",820
same,cell viability (CellTiter-Glo luminescent assay),"[1]; 2 (unit uncertain), Day 4",601
same,cell viability (CellTiter-Glo luminescent assay),"[1]; 2 (unit uncertain), Day 5",213
same,cell viability (CellTiter-Glo luminescent assay),"CAG myeloma cell line; 0.02 (unit uncertain), Day 1","188,754"
same,cell viability (CellTiter-Glo luminescent assay),"CAG myeloma cell line; 0.02 (unit uncertain), Day 2","552,402"
same,cell viability (CellTiter-Glo luminescent assay),"CAG myeloma cell line; 0.02 (unit uncertain), Day 3","805,110"
same,cell viability (CellTiter-Glo luminescent assay),"CAG myeloma cell line; 0.02 (unit uncertain), Day 4","2,582,505"
same,cell viability (CellTiter-Glo luminescent assay),"CAG myeloma cell line; 0.02 (unit uncertain), Day 5","4,299,468"
same,cell viability (CellTiter-Glo luminescent assay),"CAG myeloma cell line; 0.2 (unit uncertain), Day 1","164,436"
same,cell viability (CellTiter-Glo luminescent assay),"CAG myeloma cell line; 0.2 (unit uncertain), Day 2","358,735"
same,cell viability (CellTiter-Glo luminescent assay),"CAG myeloma cell line; 0.2 (unit uncertain), Day 3","511,726"
same,cell viability (CellTiter-Glo luminescent assay),"CAG myeloma cell line; 0.2 (unit uncertain), Day 4","1,187,656"
same,cell viability (CellTiter-Glo luminescent assay),"CAG myeloma cell line; 0.2 (unit uncertain), Day 5","1,595,148"
same,cell viability (CellTiter-Glo luminescent assay),"CAG myeloma cell line; 2 (unit uncertain), Day 1","88,285"
same,cell viability (CellTiter-Glo luminescent assay),"CAG myeloma cell line; 2 (unit uncertain), Day 2","58,508"
same,cell viability (CellTiter-Glo luminescent assay),"CAG myeloma cell line; 2 (unit uncertain), Day 3","17,247"
same,cell viability (CellTiter-Glo luminescent assay),"CAG myeloma cell line; 2 (unit uncertain), Day 4","9,111"
same,cell viability (CellTiter-Glo luminescent assay),"CAG myeloma cell line; 2 (unit uncertain), Day 5","1,745"
same,inhibition of cell viability in four myeloma cell lines,"[2]; 0.5 mg/ml, every 24 hours over 5 days",most significantly inhibited cell viability
same,effective invitro dosage (cell growth inhibition),[2]; myeloma cell lines,0.2 µM
same,Mean GI50,NCI-60 cancer panel,−6.35 log^10 molar
same,cell viability (CellTiter-Glo luminescent assay),"U266 myeloma cell line; 0.02, Day 1","30,188"
same,cell viability (CellTiter-Glo luminescent assay),"U266 myeloma cell line; 0.02, Day 2","46,889"
same,cell viability (CellTiter-Glo luminescent assay),"U266 myeloma cell line; 0.02, Day 3","63,864"
same,cell viability (CellTiter-Glo luminescent assay),"U266 myeloma cell line; 0.02, Day 4","112,366"
same,cell viability (CellTiter-Glo luminescent assay),"U266 myeloma cell line; 0.02, Day 5","145,073"
same,cell viability (CellTiter-Glo luminescent assay),"U266 myeloma cell line; 0.2, Day 1","24,729"
same,cell viability (CellTiter-Glo luminescent assay),"U266 myeloma cell line; 0.2, Day 2","38,799"
same,cell viability (CellTiter-Glo luminescent assay),"U266 myeloma cell line; 0.2, Day 3","45,134"
same,cell viability (CellTiter-Glo luminescent assay),"U266 myeloma cell line; 0.2, Day 4","69,867"
same,cell viability (CellTiter-Glo luminescent assay),"U266 myeloma cell line; 0.2, Day 5","90,555"
same,cell viability (CellTiter-Glo luminescent assay),"U266 myeloma cell line; 2, Day 1","7,818"
same,cell viability (CellTiter-Glo luminescent assay),"U266 myeloma cell line; 2, Day 2","3,633"
same,cell viability (CellTiter-Glo luminescent assay),"U266 myeloma cell line; 2, Day 3","1,048"
same,cell viability (CellTiter-Glo luminescent assay),"U266 myeloma cell line; 2, Day 4",628
same,cell viability (CellTiter-Glo luminescent assay),"U266 myeloma cell line; 2, Day 5",144
"COc1cc([C@@H]2c3cc4c(cc3[C@@H](O[C@@H]3O[C@@H]5CO[C@@H](C)O[C@H]5[C@H](O)[C@H]3O)[C@H]3COC(=O)[C@H]23)OCO4)cc(OC)c1O [VP-16-213, Etoposide]",response of 12 myeloma cell lines,"[3]; 0.2 μM, in 5 days",responded
same,speed of response compared with EPED3,"[3]; myeloma cell lines (n=12), regardless of the concentration",much more delayed response
